Test results taken from ChEMBL document CHEMBL1150030, “Benzolactam growth hormone secretagogues: replacements for the 2-tetrazole moiety of L-692,429” (1994).

Organism: Rattus norvegicus
Assay: In vitro effective dose for the growth hormone(GH) release in rat pituitary cells
Assay type: functional
Details: Pituitary gland cell, read-out: ED50 (the source's name)

CC(C)(N)CC(=O)N[C@@H]1CCc2ccccc2N(Cc2ccc(-c3ccccc3-c3nnnn3CC(=O)O)cc2)C1=O
EC50: 1000 nM

CC(C)(N)CC(=O)N[C@@H]1CCc2ccccc2N(Cc2ccc(-c3ccccc3-c3nnn(CC(=O)O)n3)cc2)C1=O
EC50: 200 nM

Cn1nnnc1-c1ccccc1-c1ccc(CN2C(=O)[C@H](NC(=O)CC(C)(C)N)CCc3ccccc32)cc1
EC50: 500 nM

CC(C)(N)CC(=O)N[C@@H]1CCc2ccccc2N(Cc2ccc(-c3ccccc3-c3nnn(Cc4ccccc4)n3)cc2)C1=O
EC50: 1000 nM

CC(C)(N)CC(=O)N[C@@H]1CCc2ccccc2N(Cc2ccc(-c3ccccc3-c3nnnn3Cc3ccccc3)cc2)C1=O
EC50: 700 nM

CC(C)(N)CC(=O)N[C@@H]1CCc2ccccc2N(Cc2ccc(-c3ccccc3S(=O)(=O)NC(C)(C)C)cc2)C1=O
EC50: 4000 nM

CC(C)(N)CC(=O)N[C@@H]1CCc2ccccc2N(Cc2ccc(-c3ccccc3S(=O)(=O)NC(=O)c3ccccc3)cc2)C1=O
EC50: 3000 nM

CC(O)Cn1nnc(-c2ccccc2-c2ccc(CN3C(=O)[C@H](NC(=O)CC(C)(C)N)CCc4ccccc43)cc2)n1 (some centres not stated)
EC50: 50 nM

CC(C)(N)CC(=O)N[C@@H]1CCc2ccccc2N(Cc2ccc(-c3ccccc3-c3nn[nH]n3)cc2)C1=O
EC50: 60 nM

CC(C)(N)CC(=O)N[C@@H]1CCc2ccccc2N(Cc2ccc(-c3ccccc3S(N)(=O)=O)cc2)C1=O
EC50: 3000 nM

CC(C)(N)CC(=O)N[C@@H]1CCc2ccccc2N(Cc2ccc(-c3ccccc3C(N)=O)cc2)C1=O
EC50: 80 nM

CC(C)(N)CC(=O)N[C@@H]1CCc2ccccc2N(Cc2ccc(-c3ccccc3C(=O)O)cc2)C1=O
EC50: 3000 nM

Cc1ccccc1-c1ccc(CN2C(=O)[C@H](NC(=O)CC(C)(C)N)CCc3ccccc32)cc1
EC50: 1000 nM

CC(O)Cn1nnnc1-c1ccccc1-c1ccc(CN2C(=O)[C@H](NC(=O)CC(C)(C)N)CCc3ccccc32)cc1 (some centres not stated)
EC50: 50 nM

Cn1nnc(-c2ccccc2-c2ccc(CN3C(=O)[C@H](NC(=O)CC(C)(C)N)CCc4ccccc43)cc2)n1
EC50: 300 nM

CC(C)(N)CC(=O)N[C@@H]1CCc2ccccc2N(Cc2ccc(-c3ccccc3C#N)cc2)C1=O (racemic)
EC50: 5000 nM

COC(=O)c1ccccc1-c1ccc(CN2C(=O)[C@H](NC(=O)CC(C)(C)N)CCc3ccccc32)cc1 (racemic)
EC50: 2000 nM
